This note sets out measurements from patent publication US20240116985A1, “STAPLED PEPTIDES AND METHODS THEREOF” (priority 2020, published 2024).

The first data set in a line: CHI Log D procedure. The data set is classed as physicochemical. The conditions noted are these: pH 7.4.
For the compound `CC(=O)N1CCC[C@]12CC=CCCCC1(CCCC=CCCCCCC[C@@](C)(C(=O)N[C@@H](Cc3ccc(F)c(F)c3)C(=O)N[C@@H](Cc3c[nH]c4ccccc34)C(=O)N[C@@H](CCC(N)=O)C(N)=O)NC(=O)[C@H](C(C)C)NC(=O)[C@H](Cc3ccccc3)NC(=O)[C@H](C)NC(=O)[C@H](C)NC(=O)[C@H](CC(=O)O)NC(=O)[C@H](CC(=O)O)NC1=O)NC(=O)[C@H](C)NC(=O)[C@H](CC(=O)O)NC2=O` (stereo partly drawn) [I-262, Ac-PL3-Asp-Ala-B5-Asp-Asp-Ala-Ala-Phe-Val-S8-34FF-Trp-Gln-NH2], the “CHI Log D” value was 2.106.
On the same count and under the same terms, the result for `CC(=O)N1CCC[C@]12CC=CCCCC1(CCCC=CCCCCCC[C@@](C)(C(=O)N[C@@H](Cc3ccc(F)c(F)c3)C(=O)N[C@@H](Cc3c[nH]c4ccccc34)C(=O)N[C@@H](CCC(N)=O)C(N)=O)NC(=O)[C@H](C(C)C)NC(=O)[C@H](Cc3ccccc3)NC(=O)[C@H](C)NC(=O)[C@H](C)NC(=O)[C@H](CC(=O)O)NC(=O)[C@H](CC(=O)O)NC1=O)NC(=O)[C@H](C)NC(=O)[C@H](CC(=O)O)NC2=O` (stereo partly drawn) [I-263, Ac-PL3-Asp-Ala-B5-Asp-Asp-Ala-Ala-Phe-Val-S8-34FF-Trp-Gln-NH2] reads 2.128; that for `CC(=O)N1CCC[C@]12CC=CCCCC1(CCCC=CCCCCCC[C@@](C)(C(=O)N[C@@H](Cc3ccccc3)C(=O)N[C@@H](Cc3c[nH]c4ccccc34)C(=O)N[C@@H](CCC(N)=O)C(N)=O)NC(=O)[C@H](C(C)C)NC(=O)[C@H](Cc3cccc(F)c3)NC(=O)[C@H](C)NC(=O)[C@H](C)NC(=O)[C@H](CC(=O)O)NC(=O)[C@H](CC(=O)O)NC1=O)NC(=O)[C@H](C)NC(=O)[C@H](CC(=O)O)NC2=O` (stereo partly drawn) [I-264, Ac-PL3-Asp-Ala-B5-Asp-Asp-Ala-Ala-3FF-Val-S8-Phe-Trp-Gln-NH2], 2.011.
On to `CC(=O)N1CCC[C@]12CC=CCCCC1(CCCC=CCCCCCC[C@@](C)(C(=O)N[C@@H](Cc3ccccc3)C(=O)N[C@@H](Cc3c[nH]c4ccccc34)C(=O)N[C@@H](CCC(N)=O)C(N)=O)NC(=O)[C@H](C(C)C)NC(=O)[C@H](Cc3ccccc3)NC(=O)[C@H](C)NC(=O)[C@H](C)NC(=O)[C@H](CC(=O)O)NC(=O)[C@H](CC(=O)O)NC1=O)NC(=O)[C@H](C)NC(=O)[C@H](CCC(=O)O)NC2=O` (stereo partly drawn) [I-280, Ac-PL3-Glu-Ala-B5-Asp-Asp-Ala-Ala-Phe-Val-S8-Phe-Trp-Gln-NH2], for which the “CHI Log D” value is listed as 1.991.
Same read-out and setting: the result for `CC(=O)N1CCC[C@]12CC=CCCCC1(CCCC=CCCCCCC[C@@](C)(C(=O)N[C@@H](Cc3ccccc3)C(=O)N[C@@H](Cc3c[nH]c4ccccc34)C(=O)N[C@@H](CCC(N)=O)C(N)=O)NC(=O)[C@H](C(C)C)NC(=O)[C@H](Cc3ccccc3)NC(=O)[C@H](C)NC(=O)[C@H](C)NC(=O)[C@H](CC(=O)O)NC(=O)[C@H](CCC(=O)O)NC1=O)NC(=O)[C@H](C)NC(=O)[C@H](CC(=O)O)NC2=O` (stereo partly drawn) [I-281, Ac-PL3-Asp-Ala-B5-Glu-Asp-Ala-Ala-Phe-Val-S8-Phe-Trp-Gln-NH2] reads 2.2; that for `CC(=O)N1CCC[C@]12CC=CCCCC1(CCCC=CCCCCCC[C@@](C)(C(=O)N[C@@H](Cc3ccccc3)C(=O)N[C@@H](Cc3c[nH]c4ccccc34)C(=O)N[C@@H](CCC(N)=O)C(N)=O)NC(=O)[C@H](C(C)C)NC(=O)[C@H](Cc3ccccc3)NC(=O)[C@H](C)NC(=O)[C@H](C)NC(=O)[C@H](CC(=O)O)NC(=O)[C@H](CCC(=O)O)NC1=O)NC(=O)[C@H](C)NC(=O)[C@H](CC(=O)O)NC2=O` (stereo partly drawn) [I-282, Ac-PL3-Asp-Ala-B5-Glu-Asp-Ala-Ala-Phe-Val-S8-Phe-Trp-Gln-NH2], 2.224.
With `CC(=O)N1CCC[C@]12CC=CCCCC1(CCCC=CCCCCCC[C@@](C)(C(=O)N[C@@H](Cc3ccccc3)C(=O)N[C@@H](Cc3c[nH]c4ccccc34)C(=O)N[C@@H](CCC(N)=O)C(N)=O)NC(=O)[C@H](C(C)C)NC(=O)[C@H](Cc3ccccc3)NC(=O)[C@H](C)NC(=O)[C@H](C)NC(=O)[C@H](Cc3c[nH]cn3)NC(=O)[C@H](CC(=O)O)NC1=O)NC(=O)[C@H](C)NC(=O)[C@H](CC(=O)O)NC2=O` (stereo partly drawn) [I-304, Ac-PL3-Asp-Ala-B5-Asp-His-Ala-Ala-Phe-Val-S8-Phe-Trp-Gln-NH2], the “CHI Log D” value worked out at 2.339.
On the same count and under the same terms, the result for `CC(=O)N1CCC[C@]12CC=CCCCC1(CCCC=CCCCCCC[C@@](C)(C(=O)N[C@@H](Cc3ccccc3)C(=O)N[C@@H](Cc3c[nH]c4ccccc34)C(=O)N[C@@H](CCC(N)=O)C(N)=O)NC(=O)[C@H](C(C)C)NC(=O)[C@H](Cc3cccc(Cl)c3)NC(=O)[C@H](C)NC(=O)[C@H](C)NC(=O)[C@H](CC(=O)O)NC(=O)[C@H](CC(=O)O)NC1=O)NC(=O)[C@H](C)NC(=O)[C@H](CC(=O)O)NC2=O` (stereo partly drawn) [I-306, Ac-PL3-Asp-Ala-B5-Asp-Asp-Ala-Ala-3C1F-Val-S8-Phe-Trp-Gln-NH2] reads 2.03; that for `CC(=O)N1CCC[C@]12CC=CCCCC1(CCCC=CCCCCCC[C@@](C)(C(=O)N[C@@H](Cc3ccccc3)C(=O)N[C@@H](Cc3c[nH]c4ccccc34)C(=O)N[C@@H](CCC(N)=O)C(N)=O)NC(=O)[C@H](C(C)C)NC(=O)[C@H](Cc3ccc(Cl)cc3)NC(=O)[C@H](C)NC(=O)[C@H](C)NC(=O)[C@H](CC(=O)O)NC(=O)[C@H](CC(=O)O)NC1=O)NC(=O)[C@H](C)NC(=O)[C@H](CC(=O)O)NC2=O` (stereo partly drawn) [I-308, Ac-PL3-Asp-Ala-B5-Asp-Asp-Ala-Ala-4C1F-Val-S8-Phe-Trp-Gln-NH2], 2.03.
The same measure, in the same setting: the result for `CC[C@H](C)[C@@H]1NC(=O)[C@H](CC(=O)O)NC(=O)[C@]2(CC=CCCCC3(CCCC=CCCCCCC[C@@](C)(C(=O)N[C@@H](Cc4ccccc4)C(=O)N[C@@H](Cc4csc5ccccc45)C(=O)N[C@@H](CCC(N)=O)C(N)=O)NC(=O)[C@H](CCC(N)=O)NC(=O)[C@H](Cc4ccccc4)NC(=O)[C@H](C)NC(=O)[C@H](C)NC(=O)[C@H](CCC(=O)O)NC(=O)[C@H](CNS(=O)(=O)C(F)(F)F)NC3=O)NC1=O)CCCN2C(C)=O` (stereo partly drawn) [I-630, Ac-PL3-Asp-Ile-B5-[Tf]Dap-Glu-Ala-Ala-Phe-Gln-S8-Phe-BztA-Gln-NH2] reads 4.36; that for `CC[C@H](C)[C@@H]1NC(=O)[C@H](CC(=O)O)NC(=O)[C@]2(CC=CCCCC3(CCCC=CCCCCCC[C@@](C)(C(=O)N[C@@H](Cc4ccccc4)C(=O)N[C@@H](Cc4csc5ccccc45)C(=O)N[C@@H](CCC(N)=O)C(N)=O)NC(=O)[C@H](CCC(N)=O)NC(=O)[C@H](Cc4ccccc4)NC(=O)[C@H](C)NC(=O)[C@H](C)NC(=O)[C@H](CCC(=O)O)NC(=O)[C@H](CNS(=O)(=O)C(F)(F)F)NC3=O)NC1=O)CCCN2C(C)=O` (stereo partly drawn) [I-631, Ac-PL3-Asp-Ile-B5-[Tf]Dap-Glu-Ala-Ala-Phe-Gln-S8-Phe-BztA-Gln-NH2], 4.365.

Staying with this data set, now noted: pH 7.4, CHI Log D.
`CC(=O)N1CCC[C@]12CC=CCCCC1(CCCC=CCCCCCC[C@@](C)(C(=O)N[C@@H](CCc3ccc(O)cc3)C(=O)N[C@@H](Cc3c[nH]c4ccccc34)C(=O)N[C@@H](CCC(N)=O)C(N)=O)NC(=O)[C@H](C(C)C)NC(=O)[C@H](Cc3ccccc3)NC(=O)[C@H](C)NC(=O)[C@H](C)NC(=O)[C@H](CC(=O)O)NC(=O)[C@H](CC(=O)O)NC1=O)NC(=O)[C@H](C)NC(=O)[C@H](CC(=O)O)NC2=O` (stereo partly drawn) [I-269, Ac-PL3-Asp-Ala-B5-Asp-Asp-Ala-Ala-Phe-Val-S8-hTyr-Trp-Gln-NH2] showed a chromatographic logD of 1.81.
The same measure, in the same setting: the result for `CC(=O)N1CCC[C@]12CC=CCCCC1(CCCC=CCCCCCC[C@@](C)(C(=O)N[C@@H](Cc3ccccc3)C(=O)N[C@@H](Cc3csc4ccccc34)C(=O)N[C@@H](CCC(N)=O)C(N)=O)NC(=O)[C@H](C(C)C)NC(=O)[C@H](Cc3ccccc3)NC(=O)[C@H](C)NC(=O)[C@H](C)NC(=O)[C@H](Cc3ccc4ccccc4n3)NC(=O)[C@H](CC(=O)O)NC1=O)NC(=O)[C@H](C)NC(=O)[C@H](CC(=O)O)NC2=O` (stereo partly drawn) [I-300, Ac-PL3-Asp-Ala-B5-Asp-Qui-Ala-Ala-Phe-Val-S8-Phe-BztA-Gln-NH2] reads 2.82.
On the same count and under the same terms, the result for `CC(=O)N1CCC[C@]12CC=CCCCC1(CCCC=CCCCCCC[C@@](C)(C(=O)N[C@@H](Cc3ccccc3)C(=O)N[C@@H](Cc3csc4ccccc34)C(=O)N[C@@H](CCC(N)=O)C(N)=O)NC(=O)[C@H](C(C)C)NC(=O)[C@H](Cc3ccccc3)NC(=O)[C@H](C)NC(=O)[C@H](C)NC(=O)[C@H](CCc3ccccc3)NC(=O)[C@H](CC(=O)O)NC1=O)NC(=O)[C@H](C)NC(=O)[C@H](CC(=O)O)NC2=O` (stereo partly drawn) [I-301, Ac-PL3-Asp-Ala-B5-Asp-hPhe-Ala-Ala-Phe-Val-S8-Phe-BztA-Gln-NH2] reads 3.26; that for `CC(=O)N1CCC[C@]12CC=CCCCC1(CCCC=CCCCCCC[C@@](C)(C(=O)N[C@@H](Cc3c(F)c(F)c(F)c(F)c3F)C(=O)N[C@@H](Cc3csc4ccccc34)C(=O)N[C@@H](CCC(N)=O)C(N)=O)NC(=O)[C@H](C(C)C)NC(=O)[C@H](Cc3ccccc3)NC(=O)[C@H](C)NC(=O)[C@H](C)NC(=O)[C@H](CC(=O)O)NC(=O)[C@H](CC(=O)O)NC1=O)NC(=O)[C@H](C)NC(=O)[C@H](CC(=O)O)NC2=O` (stereo partly drawn) [I-302, Ac-PL3-Asp-Ala-B5-Asp-Asp-Ala-Ala-Phe-Val-S8-pff-BztA-Gln-NH2], 2.38.
The same measure, in the same setting: the result for `CC(=O)N1CCC[C@]12CC=CCCCC1(CCCC=CCCCCCC[C@@](C)(C(=O)N[C@@H](Cc3ccccc3)C(=O)N[C@@H](Cc3c[nH]c4ccccc34)C(=O)N[C@@H](CCC(N)=O)C(N)=O)NC(=O)[C@H](C(C)C)NC(=O)[C@H](Cc3ccccc3)NC(=O)[C@H](C)NC(=O)[C@H](C)NC(=O)[C@H](C(c3ccccc3)c3ccccc3)NC(=O)[C@H](CC(=O)O)NC1=O)NC(=O)[C@H](C)NC(=O)[C@H](CC(=O)O)NC2=O` (stereo partly drawn) [I-303, Ac-PL3-Asp-Ala-B5-Asp-DipA-Ala-Ala-Phe-Val-S8-Phe-Trp-Gln-NH2] reads 3.13.
As to `CC(=O)N1CCC[C@]12CC=CCCCC1(CCCC=CCCCCCC[C@@](C)(C(=O)N[C@@H](Cc3ccccc3)C(=O)N[C@@H](Cc3c[nH]c4ccccc34)C(=O)N[C@@H](CO)C(N)=O)NC(=O)[C@H](CO)NC(=O)[C@H](Cc3ccccc3)NC(=O)[C@H](C)NC(=O)[C@H](C)NC(=O)[C@H](CC(=O)O)NC(=O)[C@H](CC(=O)O)NC1=O)NC(=O)[C@H](C)NC(=O)[C@H](CC(=O)O)NC2=O` (stereo partly drawn) [I-333, Ac-PL3-Asp-Ala-B5-Asp-Asp-Ala-Ala-Phe-Ser-S8-Phe-WCHO-Ser-NH2], the pH-dependent lipophilicity (logD) amounted to 2.12.
